Patent US11603359B2, “Benzothiadiazepine compounds and their use as bile acid modulators” (Albireo AB, priority 2019, dated 2023)

Legend:
human LBAT = target: T1, human LBAT (Homo sapiens, UniProt Q14973); assay: LBAT (h/m) assay, human LBAT-overexpressing cells, 3H-taurocholic acid uptake; assay type: cell-based; conditions: 0.3 μM 3H-taurocholic acid + 7.5 μM cold taurocholic acid, 20 minutes, read-out: hLBAT IC50
T1 construct: expressed in transfected cells; Geneticin-selected LBAT-overexpressing cells
T1 sequence (Q14973 1-349): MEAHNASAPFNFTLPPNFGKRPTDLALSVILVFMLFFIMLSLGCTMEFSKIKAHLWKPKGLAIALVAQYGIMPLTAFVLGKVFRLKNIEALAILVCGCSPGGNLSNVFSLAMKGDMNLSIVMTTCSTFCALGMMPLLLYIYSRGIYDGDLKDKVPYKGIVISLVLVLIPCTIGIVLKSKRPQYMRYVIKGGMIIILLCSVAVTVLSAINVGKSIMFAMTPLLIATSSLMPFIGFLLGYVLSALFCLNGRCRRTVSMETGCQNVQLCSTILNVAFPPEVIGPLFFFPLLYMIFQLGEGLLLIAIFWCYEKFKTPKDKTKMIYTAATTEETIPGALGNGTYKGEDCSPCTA
Method: 20,000 cells (Human or Mouse LBAT-overexpressing cells) were seeded in 96-wells plate (Corning CLS3809) in 100 μL MEM-alpha medium (Gibco 12571-063) supplemented with 10% FBS (Gibco 10438026) containing Geneticin (Gibco 10131-027) (1 mg/mL) and incubated at 37° C. in 5% CO2 for 24 hours. After incubation, media was decanted from the wells and cells were washed two times with 300 μL of basal MEM-alpha medium (FBS-free). After decanting basal MEM-alpha medium each time, plates were tapped against paper towel to ensure maximum removal of residual media.
For human LBAT, incubation mix was prepared by adding test inhibitor dilutions (3-fold serial dilution in DMSO (Sigma D2650), 10 points) in MEM-alpha (without FBS) containing 0.3 μM 3H-taurocholic acid (ARC ART-1368) and 7.5 μM cold taurocholic acid (Sigma T4009) (maintaining 0.2% final DMSO concentration). For mouse LBAT, incubation mix was prepared by adding test inhibitor dilutions (3-fold serial dilution in DMSO, 10 points) in MEM-alpha (without FBS) containing 0.3 μM 3H-taurocholic acid and 25 μM cold taurocholic acid maintaining 0.2% final DMSO concentration).
50 μL of incubation mix containing test inhibitors was then added to the wells (in duplicate) and the plates were incubated for 20 minutes in a CO2 incubator at 37° C. After incubation, the reaction was stopped by keeping the plates on ice water mix for 2-3 minutes and then the incubation mix was aspirated completely from the wells. The wells were washed two times with 250 μL of chilled unlabelled 1 mM taurocholic acid dissolved in HEPES (Gibco 15630080)-buffered (10 mM) HBSS (Gibco 14175079) (pH 7.4). The plates were tapped against a paper towel after every wash to ensure maximum removal of blocking buffer.
100 μL of MicroScint-20 (PerkinElmer 6013621) was added to the wells and kept overnight at room temperature before reading the plates in TopCount NXT™ Microplate Scintillation and Luminescence Counter from PerkinElmer under 3H Test protocol (set at 120 seconds reading time per well, with normal plate orientation).
(§1) All test compounds were provided in powder form at room temperature. 10 mM DMSO stocks of the test compounds were prepared, aliquoted and stored at −20° C. From the 10 mM DMSO stock of the compounds, a 3-fold serial dilution in DMSO was prepared to get a total of 10 dilutions of the test compounds. 0.5 μL of this dilution in DMSO was added to 250 μL of FBS-free basal media containing 3H-taurocholic acid and cold taurocholic acid to prepare the incubation mixture.

human IBAT = target: T2, human IBAT (Homo sapiens, UniProt Q12908); assay: IBAT (h/m) assay, human IBAT-overexpressing cells, 3H-taurocholic acid uptake; assay type: cell-based; conditions: 0.25 μM 3H-taurocholic acid + 5 μM cold taurocholic acid, 20 minutes, read-out: hIBAT IC50
T2 construct: expressed in transfected cells; Puromycin-selected IBAT-overexpressing cells
T2 sequence (Q12908 1-348): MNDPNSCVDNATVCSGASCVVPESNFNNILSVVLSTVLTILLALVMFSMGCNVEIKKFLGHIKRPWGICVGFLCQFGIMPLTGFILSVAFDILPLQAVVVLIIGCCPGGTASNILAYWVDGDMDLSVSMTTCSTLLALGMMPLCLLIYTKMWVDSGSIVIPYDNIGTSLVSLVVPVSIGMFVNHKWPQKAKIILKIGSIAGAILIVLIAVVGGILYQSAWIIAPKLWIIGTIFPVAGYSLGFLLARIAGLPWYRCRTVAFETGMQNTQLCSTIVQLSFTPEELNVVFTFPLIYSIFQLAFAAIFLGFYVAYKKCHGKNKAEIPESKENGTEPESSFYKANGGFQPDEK
Method: 10,000 cells (Human or Mouse IBAT-overexpressing cells) were seeded in 96-wells plate (Corning CLS3809) in 200 μL MEM-alpha medium (Gibco 12571-063) supplemented with 10% FBS (Gibco 10438026) containing Puromycin (Gibco A1113803) (10 μg/mL) and incubated at 37° C. in 5% CO2 for 48 hours. After incubation, media was decanted from the wells and cells were washed two times with 300 μL of basal MEM-alpha medium (FBS-free). After decanting basal MEM-alpha medium each time, plates were tapped against paper towel to ensure maximum removal of residual media. Test inhibitor dilutions (highest test concentration being 10 μM, 3-fold serial dilution, 10 points) prepared in DMSO (Sigma D2650) were added in incubation mix (maintaining 0.2% final DMSO concentration) containing 0.25 μM 3H-taurocholic acid (ARC ART-1368) and 5 μM of cold taurocholic acid (Sigma T4009). 50 μL of incubation mix containing test inhibitors was then added to the wells (in duplicate) and the plates were incubated for 20 minutes in a CO2 incubator at 37° C. After incubation, the reaction was stopped by keeping the plates on ice water mix for 2-3 minutes and then the incubation mix was aspirated completely from the wells. The wells were washed two times with 250 μL of chilled unlabelled 1 mM taurocholic acid dissolved in HEPES (Gibco 15630080)-buffered (10 mM) HBSS (Gibco 14175079) (pH 7.4). The plates were tapped against a paper towel after every wash to ensure maximum removal of blocking buffer.
100 μL of MicroScint-20 (PerkinElmer 6013621) was added to the wells and kept overnight at room temperature before reading the plates in TopCount NXT™ Microplate Scintillation and Luminescence Counter from PerkinElmer under 3H Test protocol (set at 120 seconds reading time per well).
as §1

| Structure (SMILES) | IC50 (human LBAT) [nM] | IC50 (human IBAT) [nM] |
| --- | --- | --- |
| CCCCC1(CC)CN(c2ccccc2)c2cc(SC)c(OCCC(=O)O)cc2S(=O)(=O)N1 (single isomer, unassigned) [Example 3, 3-((3-butyl-3-ethyl-7-(methylthio)-1,1-dioxido-5-phenyl-2,3,4,5-tetrahydro-1,2,5-benzothiadiazepin-8-yl)oxy)propanoic acid] | 283 | 23 |
| CCCCC1(CC)CN(c2ccccc2)c2cc(N(C)C)c(OCCC(=O)O)cc2S(=O)(=O)N1 (single isomer, unassigned) [Example 13, 3-((3-butyl-7-(dimethylamino)-3-ethyl-1,1-dioxido-5-phenyl-2,3,4,5-tetrahydro-1,2,5-benzothiadiazepin-8-yl)oxy)propanoic acid] | 2220 | 15 |
| CCCCC1(CC)CN(c2ccccc2)c2cc(SC)c(OCC(N)C(=O)O)cc2S(=O)(=O)N1 (stereo not shown) [Example 14, O-(3-butyl-3-ethyl-7-(methylthio)-1,1-dioxido-5-phenyl-2,3,4,5-tetrahydro-1,2,5-benzothiadiazepin-8-yl)serine] | 342 | 6 |

The remaining molecules from weak to strong by IC50 (human LBAT), led by results:

| IC50 (human LBAT) [nM] | IC50 (human IBAT) [nM] | Structure (SMILES) |
| --- | --- | --- |
| 3660 | 14 | CCCCC1(CCCC)CN(c2ccccc2)c2cc(SC)c(OCC(O)C(=O)O)cc2S(=O)(=O)N1 (single isomer, unassigned) [Example 6, 3-((3,3-dibutyl-7-(methylthio)-1,1-dioxido-5-phenyl-2,3,4,5-tetrahydro-1,2,5-benzothiadiazepin-8-yl)oxy)-2-hydroxypropanoic acid] |
| 736 | 4 | CCCCC1(CC)CN(c2ccccc2)c2cc(SC)c(OCCC(=O)O)cc2S(=O)(=O)N1 (racemic) [Example 2, 3-((3-butyl-3-ethyl-7-(methylthio)-1,1-dioxido-5-phenyl-2,3,4,5-tetrahydro-1,2,5-benzothiadiazepin-8-yl)oxy)propanoic acid] |
